Reference: ChEMBL document CHEMBL5154738, “Design, synthesis and structural-activity relationship studies of phanginin A derivatives for regulating SIK1-cAMP/CREB signaling to suppress hepatic gluconeogenesis” (Eur J Med Chem, 2022)
Calls of active or inactive are those of the source. No cut-off for these calls is given here.

Experiments:
Hepatocyte [1] = assay: Inhibition of gluconeogenesis in C57BL/6J mouse primary hepatocytes assessed as inhibition of glucagon-stimulated glucose production preincubated for 1.5 hrs followed by lactate and pyruvate addition and later stimulated with glucagon for 4 hrs; type: functional, cell-based; details: dose 2.5-10 µM, time 5.5 hrs, DDE = dose-dependent effect
[2] = Cytotoxicity against C57BL/6J mouse primary hepatocytes assessed as cell viability at 50 uM incubated for 24 hrs by MTT assay relative to control; type: toxicity, cell-based, Hepatocyte; details: read-out: Activity
[3] = Cytotoxicity against C57BL/6J mouse primary hepatocytes assessed as cell viability at 200 uM incubated for 24 hrs by MTT assay relative to control; type: toxicity, cell-based, Hepatocyte; details: read-out: Activity
[4] = target: Serine/threonine-protein kinase SIK1 (Mus musculus) (UniProt Q60670); assay: Activation of SIK1 in C57BL/6J mouse primary hepatocytes assessed as increase in SIK1 phosphorylation at Thr182 residue measured after 2 hrs by western blot analysis; type: cell-based; details: Primary hepatocyte, filed as activator, dose 2.5-10 µM, DDE = dose-dependent effect
[5] = Cytotoxicity against C57BL/6J mouse primary hepatocytes assessed as cell viability at 100 uM incubated for 24 hrs by MTT assay relative to control; type: toxicity, cell-based, Hepatocyte; details: read-out: Activity
Mus musculus [6] = assay: Anti-hyperglycemic activity in ob/ob mouse assessed as reduction in non-fasting blood glucose level at 100 mg/kg, po administered once daily and measured after 8 days relative to control; type: functional; details: 192 h, time 8 day
Mus musculus [7] = assay: In vivo activation of SIK1 in ob/ob mouse assessed as increase in SIK1 phosphorylation at Thr182 residue in liver at 100 mg/kg, po administered once daily for 21 days by western blot analysis; type: functional, organism-based; details: time 21.0 day
Mus musculus [8] = assay: Anti-hyperlipidemic activity in ob/ob mouse assessed as reduction in total cholesterol level in serum at 100 mg/kg, po administered once daily for 21 days; type: functional, organism-based; details: time 21.0 day
[9] = target: Serine/threonine-protein kinase SIK1 (Mus musculus) (UniProt Q60670); assay: Activation of SIK1 in C57BL/6J mouse primary hepatocytes assessed as decrease in glucagon-stimulated CREB phosphorylation at 2.5 to 10 uM incubated for 2 hrs by western blot analysis; type: cell-based; details: Primary hepatocyte, filed as activator, dose 2.5-10 µM, DDE = dose-dependent effect
Mus musculus [10] = assay: In vivo activation of SIK1 in ob/ob mouse assessed as decrease in CREB phosphorylation in liver at 100 mg/kg, po administered once daily for 21 days by western blot analysis; type: functional, organism-based; details: time 21.0 day
Mus musculus [11] = assay: Anti-hyperglycemic activity in ob/ob mouse assessed as reduction in non-fasting blood glucose level at 100 mg/kg, po administered once daily and measured after 21 days relative to control; type: functional; details: 504 h, time 21 day
[12] = Cytotoxicity against C57BL/6J mouse primary hepatocytes assessed as cell viability at 20 uM incubated for 24 hrs by MTT assay relative to control; type: toxicity, cell-based, Hepatocyte; details: read-out: Activity
[13] = Cytotoxicity against C57BL/6J mouse primary hepatocytes assessed as cell viability at 10 uM incubated for 24 hrs by MTT assay relative to control; type: toxicity, cell-based, Hepatocyte; details: read-out: Activity
Mus musculus [14] = assay: Acute hypoglycemic activity in type 2 diabetic ob/ob mouse assessed as reduction in fasting blood glucose level at 100 mg/kg, po administered as single dose and measured for 10 hrs; type: functional, organism-based
[15] = target: Serine/threonine-protein kinase SIK1 (Mus musculus) (UniProt Q60670); assay: Activation of SIK1 in C57BL/6J mouse primary hepatocytes assessed as decrease in glucagon-stimulated intracellular cAMP accumulation by ELISA; type: cell-based; details: Primary hepatocyte, filed as activator, dose 2.5-10 µM, DDE = dose-dependent effect
[16] = Inhibition of gluconeogenesis in C57BL/6J mouse primary hepatocytes assessed as inhibition of glucagon-stimulated glucose production at 5 uM preincubated for 1.5 hrs followed by lactate and pyruvate addition and later stimulated with glucagon for 4 hrs; type: functional; details: Hepatocyte, time 5.5 hrs
[17] = Inhibition of gluconeogenesis in C57BL/6J mouse primary hepatocytes assessed as inhibition of glucagon-stimulated glucose production at 10 uM preincubated for 1.5 hrs followed by lactate and pyruvate addition and later stimulated with glucagon for 4 hrs; type: functional; details: Hepatocyte, time 5.5 hrs
Mus musculus [18] = assay: Anti-hyperglycemic activity in ob/ob mouse assessed as reduction in fasting blood glucose level at 100 mg/kg, po administered once daily and measured after 21 days relative to control; type: functional; details: 504 h, time 21 day
Mus musculus [19] = assay: Anti-hyperlipidemic activity in ob/ob mouse assessed as reduction in serum triglyceride level at 100 mg/kg, po administered once daily for 21 days; type: functional, organism-based; details: time 21.0 day
[20] = Inhibition of gluconeogenesis in C57BL/6J mouse primary hepatocytes assessed as inhibition of glucagon-stimulated glucose production at 2.5 uM preincubated for 1.5 hrs followed by lactate and pyruvate addition and later stimulated with glucagon for 4 hrs; type: functional; details: Hepatocyte, time 5.5 hrs
Mus musculus [21] = assay: Anti-hyperglycemic activity in ob/ob mouse assessed as reduction in fasting blood glucose level at 100 mg/kg, po administered once daily and measured after 4 days relative to control; type: functional; details: 96 h, time 4 day
[22] = target: Serine/threonine-protein kinase SIK1 (Mus musculus) (UniProt Q60670); assay: Activation of SIK1 in C57BL/6J mouse primary hepatocytes assessed as decrease in CREB phosphorylation at 2.5 to 10 uM incubated for 2 hrs by western blot analysis; type: cell-based; details: Primary hepatocyte, filed as activator, dose 2.5-10 µM, DDE = dose-dependent effect
Hepatocyte [23] = assay: Inhibition of gluconeogenesis in C57BL/6J mouse primary hepatocytes assessed as inhibition of glucose production preincubated for 1.5 hrs followed by lactate and pyruvate addition; type: functional, cell-based; details: dose 2.5-10 µM, DDE = dose-dependent effect
[24] = Inhibition of gluconeogenesis in C57BL/6J mouse primary hepatocytes assessed as inhibition of glucagon-stimulated glucose production at 0.5 mM preincubated for 1.5 hrs followed by lactate and pyruvate addition and later stimulated with glucagon for 4 hrs; type: functional; details: Hepatocyte, 5.5 h

Chain of Serine/threonine-protein kinase SIK1 (Mus musculus) (Q60670 whole entry): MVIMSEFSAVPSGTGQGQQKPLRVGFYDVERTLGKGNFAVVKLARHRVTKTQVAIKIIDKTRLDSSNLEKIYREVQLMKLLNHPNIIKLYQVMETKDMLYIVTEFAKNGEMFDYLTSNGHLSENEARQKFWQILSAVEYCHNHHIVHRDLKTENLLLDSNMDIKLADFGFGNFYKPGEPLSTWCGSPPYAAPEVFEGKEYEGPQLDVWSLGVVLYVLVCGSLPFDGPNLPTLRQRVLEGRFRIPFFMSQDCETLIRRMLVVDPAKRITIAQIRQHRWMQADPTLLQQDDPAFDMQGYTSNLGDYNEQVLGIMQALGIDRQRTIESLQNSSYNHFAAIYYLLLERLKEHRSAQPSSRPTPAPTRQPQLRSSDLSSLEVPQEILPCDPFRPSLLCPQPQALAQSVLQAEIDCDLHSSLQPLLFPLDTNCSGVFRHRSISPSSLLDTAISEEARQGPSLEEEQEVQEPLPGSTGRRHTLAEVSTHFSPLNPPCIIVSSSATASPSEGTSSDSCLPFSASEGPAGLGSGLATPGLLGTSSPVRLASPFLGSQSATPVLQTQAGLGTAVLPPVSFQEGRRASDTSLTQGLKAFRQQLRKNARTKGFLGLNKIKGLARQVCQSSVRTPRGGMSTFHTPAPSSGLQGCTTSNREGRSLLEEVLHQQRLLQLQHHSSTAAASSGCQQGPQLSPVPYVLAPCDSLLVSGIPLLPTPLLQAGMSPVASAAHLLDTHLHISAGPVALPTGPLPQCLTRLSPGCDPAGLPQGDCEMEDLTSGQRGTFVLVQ

COC(=O)[C@@]12CCCC3([C@H](OCCO)OC1)[C@H]2CC[C@H]1[C@@H](C)c2ccoc2C[C@@H]13
inhibition (Hepatocyte [1]): Dde | viability at 24 h, 50 µM [2]: 90.1% | viability at 24 h, 200 µM [3]: 9.2% | Activity [4]: Dde | viability at 24 h, 100 µM [5]: 11.1% | inhibition in vivo at 100 mg/kg (Mus musculus [6]): 41.1% | Activity (Mus musculus [7]): Active | Activity (Mus musculus [8]): Active | Activity [9]: Dde | Activity (Mus musculus [10]): Active | inhibition in vivo at 100 mg/kg (Mus musculus [11]): 37.6% | viability at 24 h, 20 µM [12]: 86.1% | viability at 24 h, 10 µM [13]: 98.4% | Activity (Mus musculus [14]): Active | Activity [15]: Dde | inhibition at 5 µM [16]: 79.6% | inhibition at 10 µM [17]: 91.4% | inhibition in vivo at 100 mg/kg (Mus musculus [18]): 41.2% | Activity (Mus musculus [19]): Active | inhibition at 2.5 µM [20]: 53.4% | inhibition in vivo at 100 mg/kg (Mus musculus [21]): 32.3% | Activity [22]: Dde | inhibition (Hepatocyte [23]): Dde

CN(C)C(=N)NC(=N)N [METFORMIN]
inhibition at 500 µM [24]: 51.5%

COC(=O)[C@@]12CCCC3([C@H](O)OC1)[C@H]2CC[C@H]1[C@@H](C)c2ccoc2C[C@@H]13
viability at 24 h, 50 µM [2]: 29.4% | viability at 24 h, 200 µM [3]: 7.2% | viability at 24 h, 100 µM [5]: 7.5% | inhibition in vivo at 100 mg/kg (Mus musculus [6]): 28.2% | Activity (Mus musculus [7]): Active | Activity (Mus musculus [10]): Active | inhibition in vivo at 100 mg/kg (Mus musculus [11]): 23.8% | viability at 24 h, 20 µM [12]: 84.6% | viability at 24 h, 10 µM [13]: 99% | Activity (Mus musculus [14]): Active | inhibition at 5 µM [16]: 49.7% | inhibition at 10 µM [17]: 70.5% | inhibition in vivo at 100 mg/kg (Mus musculus [18]): 33.3% | inhibition at 2.5 µM [20]: 24.9% | inhibition in vivo at 100 mg/kg (Mus musculus [21]): 24%
